This is an account of results in patent US20220177511A1, “SERIES OF HALOGENATED TETRACYCLIC TRITERPENE DERIVATIVES AND THEIR PREPARATION AND APPLICATION” (SHANGHAI KING-X BIOTECH CO., LTD, priority 2019, published 2022).

Data set [1] is described as follows: Pharmacokinetics of parent HHQ16 after single intragastric administration of compound 2 prodrugs in rats. It counts as in vivo, rat. Conditions: HHQ16 (parent) measured in rats after single intragastric 10 mg/kg of prodrug (dose converted to HHQ16). The protocol:
1. The materials and methods for oral absorption test are the same as described in example 44.
The pharmacokinetic parameters of HHQ16 measured after a single intragastric administration of 10 mg/kg of compound 2 prodrug in rats are summarized in Table 2 below.
The half-life was prolonged to varying degrees.

Data set [2] in a line: Solubility test in water and FaSSIF. The following applies: 37° C., up to 24 hours. It is filed as physicochemical.

Broadly, the Cmax is the highest concentration seen after dosing. Take “2-(((2aR,3R,4S,5aS,5bS,7S,7aR,11aR,12aS)-9,9-difluoro-4-hydroxy-3-((2S,5S)-5-(2-hydroxypropan-2-yl)-2-methyltetrahydrofuran-2-yl)-2a,5a,8,8-tetramethyltetradecahydro-1H,12H-cyclopenta[a]cyclopropa[e]phenanthren-7-yl)oxy)-N-methyl-2-oxoethan-1-aminium Chloride [Compound 2-6]”: in data set [1], the AUC0-t was 3525 ng·h/mL, the Cmax amounted to 433 ng/mL and the t1/2 was 4.2 h.

On to “3-(((2aR,3R,4S,5aS,5bS,7S,7aR,11aR,12aS)-9,9-difluoro-4-hydroxy-3-((2S,5S)-5-(2-hydroxypropan-2-yl)-2-methyltetrahydrofuran-2-yl)-2a,5a,8,8-tetramethyltetradecahydro-1H,12H-cyclopenta[a]cyclopropa[e]phenanthren-7-yl)oxy)-3-oxopropan-1-aminium Chloride [Compound 2-1]”, for which, in data set [1], the AUC0-t stood at 2955 ng·h/mL, the Cmax turned out to be 455 ng/mL and the t1/2 was found to be 3.52 h.

The Solubility is the dissolved amount per volume that the medium holds. A high value points to much dissolved substance. `CC(C)C(N)C(=O)OC1CC2C3(C)CC(O)C(C4(C)CCC(C(C)(C)O)O4)C3(C)CCC23CC32CCC(F)(F)C(C)(C)C12.Cl` (mixture of isomers) [Compound 2-15, 1-(((2aR,3R,4S,5aS,5bS,7S,7aR,11aR,12aS)-9,9-difluoro-4-hydroxy-3-((2S,5S)-5-(2-hydroxypropan-2-yl)-2-methyltetrahydrofuran-2-yl)-2a,5a,8,8-tetramethyltetradecahydro-1H,12H-cyclopenta[a]cyclopropa[e]phenanthren-7-yl)oxy)-3-methyl-1-oxobutan-2-aminium Chloride]: in data set [1], the AUC0-t is 4500 ng·h/mL, the Cmax is 451 ng/mL and the t1/2 is on record as 8.2 h. Also, the Solubility in data set [2] (FaSSIF (pH 6.5)) worked out at 3020 µg/mL. This molecule displayed a Solubility in data set [2] (Water) of 770 µg/mL.

Consider `CC(C)(O)[C@@H]1CC[C@@](C)([C@H]2[C@@H](O)C[C@@]3(C)[C@@H]4C[C@H](OC(=O)C[C@H]5CCCN5)[C@H]5C(C)(C)C(F)(F)CC[C@@]56C[C@@]46CC[C@]23C)O1.Cl` [Compound 2-3, (R)-2-(2-(((2aR,3R,4S,5aS,5bS,7S,7aR,11aR,12aS)-9,9-difluoro-4-hydroxy-3-((2S,5S)-5-(2-hydroxypropan-2-yl)-2-methyltetrahydrofuran-2-yl)-2a,5a,8,8-tetramethyltetradecahydro-1H,12H-cyclopenta[a]cyclopropa[e]phenanthren-7-yl)oxy)-2-oxoethyl)pyrrolidin-1-ium Chloride], for which, in data set [1], the AUC0-t came to 3200 ng·h/mL, the Cmax is on record as 460 ng/mL and the t1/2 is listed as 3.98 h. The Solubility in data set [2] (FaSSIF (pH 6.5)) came out at 1800 µg/mL. In data set [2] (Water), this molecule yielded a Solubility of 950 µg/mL.

Consider `Br.CC(C)(O)C1CCC(C)(C2C(O)CC3(C)C4CC(OC(=O)CN)C5C(C)(C)C(F)(F)CCC56CC46CCC23C)O1` [Compound 2-16, 2-(((2aR,3R,4S,5aS,5bS,7S,7aR,11aR,12aS)-9,9-difluoro-4-hydroxy-3-((2S,5S)-5-(2-hydroxypropan-2-yl)-2-methyltetrahydrofuran-2-yl)-2a,5a,8,8-tetramethyltetradecahydro-1H,12H-cyclopenta[a]cyclopropa[e]phenanthren-7-yl)oxy)-2-oxoethan-1-aminium Bromide], for which, in data set [1], the AUC0-t was 4623 ng·h/mL, the highest concentration (Cmax) was determined as 510 ng/mL and the t1/2 came to 5.2 h. This molecule yielded a Solubility in data set [2] (FaSSIF (pH 6.5)) of 5300 µg/mL. The same molecule registered a Solubility in data set [2] (Water) of 950 µg/mL.

Consider `CC(C)(O)[C@@H]1CC[C@@](C)([C@H]2[C@@H](O)C[C@@]3(C)[C@@H]4C[C@H](OC(=O)[C@@H](N)CO)[C@H]5C(C)(C)C(F)(F)CC[C@@]56C[C@@]46CC[C@]23C)O1.Cl` [Compound 2-19, (S)-1-(((2aR,3R,4S,5aS,5bS,7S,7aR,11aR,12aS)-9,9-difluoro-4-hydroxy-3-((2S,5S)-5-(2-hydroxypropan-2-yl)-2-methyltetrahydrofuran-2-yl)-2a,5a,8,8-tetramethyltetradecahydro-1H,12H-cyclopenta[a]cyclopropa[e]phenanthren-7-yl)oxy)-3-hydroxy-1-oxopropan-2-aminium chloride], for which, in data set [1], the AUC0-t is 4400 ng·h/mL, the maximum concentration (Cmax) was 602 ng/mL and the t1/2 was found to be 3.5 h. Further, the Solubility in data set [2] (FaSSIF (pH 6.5)) came out at 3980 µg/mL. In data set [2] (Water), this molecule returned a Solubility of 1240 µg/mL.

As to `CC(O)C(N)C(=O)OC1CC2C3(C)CC(O)C(C4(C)CCC(C(C)(C)O)O4)C3(C)CCC23CC32CCC(F)(F)C(C)(C)C12.Cl` [Compound 2-20, (2S,3S)-1-(((2aR,3R,4S,5aS,5bS,7S,7aR,11aR,12aS)-9,9-difluoro-4-hydroxy-3-((2S,5S)-5-(2-hydroxypropan-2-yl)-2-methyltetrahydrofuran-2-yl)-2a,5a,8,8-tetramethyltetradecahydro-1H,12H-cyclopenta[a]cyclopropa[e]phenanthren-7-yl)oxy)-3-hydroxy-1-oxobutan-2-aminium Chloride], in data set [1], the AUC0-t came to 4005 ng·h/mL, the highest concentration (Cmax) is recorded as 582 ng/mL and the t1/2 turned out to be 3.6 h. This molecule displayed a Solubility in data set [2] (FaSSIF (pH 6.5)) of 2800 µg/mL. Moreover, the Solubility in data set [2] (Water) was determined as 1200 µg/mL.

In the case of `CC(C)(O)[C@@H]1CC[C@@](C)([C@H]2[C@@H](O)C[C@@]3(C)[C@@H]4C[C@H](OC(=O)CNC(=O)CN)[C@H]5C(C)(C)C(F)(F)CC[C@@]56C[C@@]46CC[C@]23C)O1.Cl` [Compound 2-27, 2-((2-(((2aR,3R,4S,5aS,5bS,7S,7aR,11aR,12aS)-9,9-difluoro-4-hydroxy-3-((2S,5S)-5-(2-hydroxypropan-2-yl)-2-methyltetrahydrofuran-2-yl)-2a,5a,8,8-tetramethyltetradecahydro-1H,12H-cyclopenta[a]cyclopropa[e]phenanthren-7-yl)oxy)-2-oxoethyl)amino)-2-oxoethan-1-aminium Chloride], in data set [1], the AUC0-t came out at 3005 ng·h/mL, the highest concentration (Cmax) stood at 358 ng/mL and the t1/2 amounted to 7.5 h. This molecule yielded a Solubility in data set [2] (FaSSIF (pH 6.5)) of 4300 µg/mL. This molecule also yielded a Solubility in data set [2] (Water) of 1300 µg/mL.

As to `CN(CC(=O)OC1CC2C3(C)CC(O)C(C4(C)CCC(C(C)(C)O)O4)C3(C)CCC23CC32CCC(F)(F)C(C)(C)C12)C(=O)C(N)Cc1ccccc1.Cl` [Compound 2-28, (R)-1-((2-(((2aR,3R,4S,5aS,5bS,7S,7aR,11aR,12aS)-9,9-difluoro-4-hydroxy-3-((2S,5S)-5-(2-hydroxypropan-2-yl)-2-methyltetrahydrofuran-2-yl)-2a,5a,8,8-tetramethyltetradecahydro-1H,12H-cyclopenta[a]cyclopropa[e]phenanthren-7-yl)oxy)-2-oxoethyl)(methyl)amino)-1-oxo-3-phenylpropan-2-aminium Chloride], in data set [1], the AUC0-t was 4332 ng·h/mL, the Cmax is 475 ng/mL and the t1/2 worked out at 6.2 h. In data set [2] (FaSSIF (pH 6.5)), this molecule returned a Solubility of 2850 µg/mL. The same molecule had a Solubility in data set [2] (Water) of 650 µg/mL.

`CC(N)C(=O)N(C)CC(=O)OC1CC2C3(C)CC(O)C(C4(C)CCC(C(C)(C)O)O4)C3(C)CCC23CC32CCC(F)(F)C(C)(C)C12.Cl` [Compound 2-29, (S)-1-((2-(((2aR,3R,4S,5aS,5bS,7S,7aR,11aR,12aS)-9,9-difluoro-4-hydroxy-3-((2S,5S)-5-(2-hydroxypropan-2-yl)-2-methyltetrahydrofuran-2-yl)-2a,5a,8,8-tetramethyltetradecahydro-1H,12H-cyclopenta[a]cyclopropa[e]phenanthren-7-yl)oxy)-2-oxoethyl)(methyl)amino)-1-oxopropan-2-aminium Chloride]: in data set [1], the AUC0-t was 5221 ng·h/mL, the Cmax came out at 605 ng/mL and the t1/2 is listed as 5.6 h. Besides, in data set [2] (FaSSIF (pH 6.5)), the Solubility was 3130 µg/mL. Besides, the Solubility in data set [2] (Water) worked out at 950 µg/mL.

As for `CC(C)(O)[C@@H]1CC[C@@](C)([C@H]2[C@@H](O)C[C@@]3(C)[C@@H]4C[C@H](OC(=O)CNC(=O)[C@@H](N)CO)[C@H]5C(C)(C)C(F)(F)CC[C@@]56C[C@@]46CC[C@]23C)O1.Cl` [Compound 2-31, (S)-1-((2-(((2aR,3R,4S,5aS,5bS,7S,7aR,11aR,12aS)-9,9-difluoro-4-hydroxy-3-((2S,5S)-5-(2-hydroxypropan-2-yl)-2-methyltetrahydrofuran-2-yl)-2a,5a,8,8-tetramethyltetradecahydro-1H,12H-cyclopenta[a]cyclopropa[e]phenanthren-7-yl)oxy)-2-oxoethyl)amino)-3-hydroxy-1-oxopropan-2-aminium Chloride], in data set [1], the AUC0-t is 3888 ng·h/mL, the Cmax was found to be 403 ng/mL and the t1/2 is 4.5 h. In addition, in data set [2] (FaSSIF (pH 6.5)), the Solubility worked out at 6250 µg/mL. In data set [2] (Water), this molecule yielded a Solubility of 1650 µg/mL.

Consider “(S)-1-(((2aR,3R,4S,5aS,5bS,7S,7aR,11aR,12aS)-9,9-difluoro-4-hydroxy-3-((2S,5S)-5-(2-hydroxypropan-2-yl)-2-methyltetrahydrofuran-2-yl)-2a,5a,8,8-tetramethyltetradecahydro-1H,12H-cyclopenta[a]cyclopropa[e]phenanthren-7-yl)oxy)-1-oxopropan-2-aminium Chloride [Compound 2-17]”, for which, in data set [1], the AUC0-t came out at 5222 ng·h/mL, the Cmax turned out to be 501 ng/mL and the t1/2 was 7.8 h.
